# Source: patent US7985738B2, “Cytosine nucleoside analogs and isoflavones and uses thereof” (Institut National de la Recherche Scientifique, priority 2007, dated 2011)
# Where “and” joins values, the source holds several entries; their conditions need not be identical. Equal entries are not always repeated.
# How the values were obtained:
# [1] = system: H2087 lung carcinoma cells; assay: Colony formation assay, H2087; type: cell-based, human; settings: decitabine 220 nM and/or genistein 5 μM, 24 h, mean ± S.D., relative to untreated cells
# Description: (§1) Cell lines and drug exposure. Human myeloid (HL-60) and lymphoid (MOLT-3) leukemic cells were obtained from ATCC (ATCC #: CRL-1552; Manassas, Va. USA). MBA-MD-231 and Dld-1 cells were also used. Human cell lines were cultured in RPMI-1640 medium (Invitrogen, Burlington, Ontario) supplemented with 10% heat-inactivated fetal bovine serum (Wisent, St-Bruno, Quebec). The doubling times of HL-60 and MOLT-3 were 16-18 h and 23-24 h, respectively, whereas for both MBA-MD-231 and Dld-1 cells it was 24-27 h. The murine lymphoid leukemic cell line L1210 (ATCC #: CCL-219; Brandes et al., (1966). J Natl Cancer Inst. 37(4): 467-85) was cultured in RPMI-1640 with 5% heat-inactivated fetal calf serum and with 6 μM of 2-mercaptoethanol. The doubling time of the L1210 cells was about 10 h. From this cell line, a clone fully resistant to […], identified herein as L1210/ARAC, was generated after exposure of increasing doses of cytosine arabinoside for a period of 3 months (Schabel et al., (1984). Cancer Treat. Rep 67: 905-922). The doubling time of the L1210/ARAC cells was about 12 h. Human lung adenocarcinoma cells H2087, and Calu-6 non-small cell lung cancer cells, were obtained from ATCC (ATCC #: CRL-5922; Manassas, Va. USA) and cultured in DMEM and RPMI without HEPES, respectively. The cells were trypsinized with 0.25% Trypsin-EDTA (Invitrogen, Grand Island, N.Y.). The doubling time of the H2087 cells was about 35 h. Cell lines were incubated at 37° C. in 5% CO2 atmosphere.
# (§2) Genistein (LC Laboratories, Woburn, Mass.) was dissolved in DMSO (Sigma, Oakville, Ontario) to prepare stock solutions of 2 and 20 mM and kept frozen at −20° C. until use. Decitabine (DAC, Dacogen™, 5-aza-2′-deoxycytidine) at 1000 μg/ml in PBS was kept at −80° C. Before each experiment, Decitabine was diluted at 1 μg/ml (for murine leukemic cell lines), 10 μg/ml (for human leukemic cells), or 100 μg/ml (for lung carcinoma cells) with sterile PBS and kept on ice until use.
# For human lung carcinoma H2087 cells, 100 cells were placed in wells of a 6-well dish (day 0); for Calu-6, MBA-MD-231 and Dld-1, 200 cells were seeded. On day 1, Decitabine (50 ng/ml) and genistein (5 μM) were added concomitantly to the cells for 24 h. Drugs were then removed and wells were rinsed with 1 ml of medium. Fresh medium (2 ml) was added and after 16-19 d colonies were stained with 0.5% methylene blue in 50% methanol and counted. The inhibition/loss of clonogenicity (%) was expressed relative to control (untreated) cells. The experiments were repeated three times and expressed as mean±S.D or mean±SEM for Calu-6, MBA-MD-231 and Dld-1 cells.
# (§3) Statistical analyses. […] The p value was evaluated accordingly to Tukey's method (Hastings, C et al. (1947). Ann. Math. Statist. 18,413-426). […]
# [2] = system: L1210 murine lymphoid leukemic cells; assay: Inhibition/loss of clonogenicity in soft agar, L1210; type: cell-based
# Description: as §1, §2
# Inhibition of clonogenicity. It is known that cancer cells form clones in soft agar (clonogenicity). Irreversible eradication of the clonogenicity of cancer stem cells is one of the objectives of chemotherapy since it is related to cell proliferation potential. Human and murine leukemic cell lines in log phase at 5×10^4 cells/ml were placed in tissue culture flasks and exposed to the drug combinations for 48 and 24 h respectively. […] After 7 d of incubation for murine cell lines or 15 d for human cell lines, the number of colonies (>50 cells) was counted. […] The experiments were repeated three times and expressed as mean±S.E.M.
# as §3
# [3] = system: human lung carcinoma cell line (CALU-6); assay: Colony formation assay, CALU-6; type: cell-based
# Description: as §1, with “atmosphere. […]” for “atmosphere.”
# For human lung carcinoma H2087 cells, 100 cells were placed in wells of a 6-well dish (day 0); for Calu-6, MBA-MD-231 and Dld-1, 200 cells were seeded. […] Fresh medium (2 ml) was added and after 16-19 d colonies were stained with 0.5% methylene blue in 50% methanol and counted. […] The experiments were repeated three times and expressed as mean±S.D or mean±SEM for Calu-6, MBA-MD-231 and Dld-1 cells.
# as §3
# [4] = system: MOLT-3 lymphoid human leukemic cells; assay: Inhibition/loss of clonogenicity in soft agar, MOLT-3; type: cell-based; settings: 48 h
# Description: as §1
# (§4) Genistein (LC Laboratories, Woburn, Mass.) was dissolved in DMSO (Sigma, Oakville, Ontario) to prepare stock solutions of 2 and 20 mM and kept frozen at −20° C. until use. Decitabine (DAC, Dacogen™, 5-aza-2′-deoxycytidine) at 1000 μg/ml in PBS was kept at −80° C. […]
# (§5) Inhibition of clonogenicity. […] After 7 d of incubation for murine cell lines or 15 d for human cell lines, the number of colonies (>50 cells) was counted. […] The experiments were repeated three times and expressed as mean±S.E.M.
# as §3
# [5] = system: L1210/ARAC leukemic cells; assay: Survival of CD2F1 mice bearing L1210/ARAC leukemia; type: in vivo; settings: i.v. 10^4 L1210/ARAC cells, 0.5% genistein in diet and/or DAC 2 mg/kg 8 h i.v. infusion on day 1
# Description: (§6) In vivo experiments. Male CD2F1 mice (24-28 g) were purchased from Taconic Biotechnology (Germantown, N.Y., USA). Mice were acclimatized to housing conditions at least 2 weeks before experiments. They received food and water ad libitum. For transplantation of leukemia cells in mice, intraperitonal (i.p.) injections of 10^4 L1210 or L1210/ARAC cells in RPMI-1640 medium were performed weekly into the CD2F1 mice. Seven days later, the ascetic fluid was obtained from the mice and a cell count of the leukemic cells was performed with a haemocytometer prior to subsequent transplantation. Mice were injected intravenously (i.v.) with 0.1 ml of L1210 or L1210/ARAC (10^4) cells. Control groups that received the control diet 2016 (Teklad Global 16% Protein Rodent Diet™; Harlan Teklad, Madison Wis.) were either treated or not with DAC. To test the effect of genistein in the diet, mice were fed with 2016 diet supplemented with 0.5% genistein (Harlan Teklad) and treated with either DAC or the vehicle alone. Mice were acclimated to the genistein-enriched regimen over a 10-days period before injection of leukemic cells. A Harvard apparatus compact infusion pump was used at a flow rate of 0.22 ml/h via 25-gauge needle into the lateral tail vein. DAC was given at 2 mg/kg for 8 h. Decitabine was prepared fresh before each experiment, dissolved in ½ PBS and sterilized by 0.2 μm filtration. Mice were placed in a restrainer cage during treatment with access to food. Toxicity was evaluated by body weight loss. Mice fed with genistein-enriched diet kept the same regimen during all the experiment. The survival time of each group of mice was monitored and the increased in life span (ILS) calculated.
# Statistical analyses. In order to evaluate whether the inter-group variations were random, one-way ANOVA testing was performed. The p value was evaluated accordingly to Tukey's method (Hastings, C et al. (1947). Ann. Math. Statist. 18,413-426). A p value≦0.05 was taken for statistical significance. Valeriote and Lin's method (Valeriote, F and Lin, H. S. 1975. Cancer Chemother. Rep. 59(5): 895-900) was used to determine if the interaction observed between drugs in the clonogenic assays was additive, synergistic or antagonistic.
# [6] = system: HL-60 myeloid human leukemic cells; assay: Inhibition/loss of clonogenicity in soft agar, HL-60; type: cell-based; settings: 48 h
# Description: as §1, §4, §5, §3
# L1210 leukemic cells = assay: Survival of CD2F1 mice bearing L1210 leukemia; type: in vivo; settings: i.v. 10^4 L1210 cells; for Increase in life span (%): 0.5% genistein in diet and/or DAC 2 mg/kg 8 h i.v. infusion on day 1
# Description: as §6, with “For transplantation of leukemia cells in mice, intraperitonal (i.p.) injections of 10^4 L1210 or L1210/ARAC cells in RPMI-1640 medium were performed weekly into the CD2F1 mice.” left out, “Control groups that received the control diet 2016 (Teklad Global 16% Protein Rodent Diet™; Harlan Teklad, Madison Wis.) were either treated or not with DAC. To test the effect of genistein in the diet, mice were fed with 2016 diet supplemented with 0.5% genistein (Harlan Teklad) and treated with either DAC or the vehicle alone.” left out
# Statistical analyses. In order to evaluate whether the inter-group variations were random, one-way ANOVA testing was performed. […] A p value≦0.05 was taken for statistical significance.
# [7] = system: L1210/ARAC cells (DAC-resistant clone of L1210); assay: Inhibition/loss of clonogenicity in soft agar, L1210/ARAC; type: cell-based, murine; settings: alone or with DAC 4.4 nM
# Description: as §1, with “The doubling time of the L1210/ARAC cells was about 12 h. Human lung adenocarcinoma cells H2087, and Calu-6 non-small cell lung cancer cells, were obtained from ATCC (ATCC #: CRL-5922; Manassas, Va. USA) and cultured in DMEM and RPMI without HEPES, respectively. The cells were trypsinized with 0.25% Trypsin-EDTA (Invitrogen, Grand Island, N.Y.). The doubling time of the H2087 cells was about 35 h. Cell lines were incubated at 37° C. in 5% CO2 atmosphere.” left out
# as §5, §3
# [8] = DAC 44 nM alone, relative to control cells
# [9] = genistein 0.1 μM, alone or with DAC 44 nM
# [10] = genistein 1 μM, alone or with DAC 44 nM
compound,measurement,setting,value
"Nc1ncn([C@H]2C[C@H](O)[C@@H](CO)O2)c(=O)n1 [DAC, 4-Amino-1-(2-deoxy-β-D-ribofuranosyl)-1,3,5-triazin-2(1H)-one, reference compound]",Loss of clonogenicity (%),[1],60%
same,Loss of clonogenicity (%),[1]; listed as Decitabine,60 ± 4.1%
same,loss of clonogenicity,"[2]; DAC 4.4 nM alone, relative to control cells",28%
same,loss of clonogenicity,"[2]; DAC 4.4 nM alone, relative to control cells, listed as Decitabine",about 30%
same,Loss of clonogenicity (%),[3]; decitabine 10 ng/ml alone,36.6%
same,loss of clonogenicity,[4]; [8],40% and 37%
same,Increase in life span (%),[5],−2.3%
same,Survival time,[5],9.42 ± 0.50 days
same,loss of clonogenicity,[6]; [8],20% and 17%
same,Increase in life span (%),L1210 leukemic cells,66.8%
O=c1c(-c2ccc(O)cc2)coc2cc(O)cc(O)c12 [genistein],Loss of clonogenicity (%),[1],3.8%
same,Loss of clonogenicity (%),[1]; listed as Genistein,3.8 ± 9.4%
same,loss of clonogenicity,"[2]; genistein 0.1 μM, alone or with DAC 4.4 nM",2%
same,loss of clonogenicity,"[2]; genistein 1 μM, alone or with DAC 4.4 nM",13%
same,Loss of clonogenicity (%),"[3]; genistein 0.1 μM, alone or with decitabine 10 ng/ml",4.9%
same,Loss of clonogenicity (%),"[3]; genistein 10 μM, alone or with decitabine 10 ng/ml",31.7%
same,loss of clonogenicity,[4]; [9],1%
same,loss of clonogenicity,[4]; [10],12%
same,Increase in life span (%),[5],7.88%
same,Survival time,[5],10.39 ± 1.01 days
same,loss of clonogenicity,[7]; genistein 0.1 μM,2%
same,loss of clonogenicity,[7]; genistein 1 μM,11%
same,loss of clonogenicity,[6]; [9],1%
same,loss of clonogenicity,[6]; [10],15%
same,Increase in life span (%),L1210 leukemic cells,7.0. (p < 0.001) %
same,survival time after injection of leukemia,L1210 leukemic cells; 0.5% genistein-enriched diet,7.85 ± 0.10 days
